Source: BigSolDB 2.1

O=C(O)[C@@H]1CSCN1
solubility (mole fraction)
Details	in 1,4-dioxane	in acetone	in acetonitrile	in dichloromethane	in ethanol	in ethyl acetate	in isopropanol	in methanol	in water
283.15 K	–	0.00018	2.2e-05	1.5e-05	9e-05	2.3e-05	3.7e-05	5.5e-05	0.00296
288.15 K	0.00035	–	–	5.1e-05	–	–	–	–	–
293.15 K	0.000384	0.000298	3e-05	0.000134	0.000125	7.2e-05	6.8e-05	7.4e-05	0.00383
298.15 K	–	–	–	0.000208	–	–	–	–	–
303.15 K	0.000477	0.000537	4.8e-05	0.000292	0.00018	0.000158	9.8e-05	0.000112	0.00502
313.15 K	0.000589	0.00135	6.8e-05	–	0.000254	0.000297	0.000127	0.000209	0.0062
323.15 K	0.000708	0.00343	9.1e-05	–	0.000348	0.000471	0.00019	0.000315	0.00773
